Measurements taken from US11957758B2, “Pharmaceutical composition of docetaxel conjugate and preparation method” (SHENZHEN SALUBRIS PHARMACEUTICALS CO. LTD, priority 2017, dated 2024).

Assays:
[1] = Stability of IA1 in different pH environments (HPLC main peak purity); type: physicochemical
Experimental: The method for measuring the impurity content in the following examples is as follows, with reference to 0512 liquid chromatography method in the “Chinese Pharmacopoeia” 2015 Edition Volume IV. 20 μl of the system suitability solution, the reference solution, and the test solution are injected into the liquid chromatograph respectively, and the chromatograms are recorded. Calculation formula: each
AT is the peak area of each impurity in the test solution; AS is the average peak area of the main peak in the reference solution; CT is the concentration (mg/ml) of the test solution; Cs is docetaxel conjugate concentration (mg/ml) in the reference solution; F is the correction factor for each impurity.
HPLC conditions: An octadecyl bonded silica gel column (C18, 4.6×150 mm, 3.5 μm); gradient elution, phase A: acetonitrile: 0.1% phosphoric acid=45:55, phase B: acetonitrile; detection wavelength: 225 nm; flow rate: 1.0 ml/min; column temperature: 40° C.

4T1 breast cancer [2] = test: 4T1 breast cancer lung metastasis model of mice, experiment (1); type: in vivo, BALB/c mice; conditions: for breast tumor weight compared to the blank control group / number of metastatic nodules on the lung surface compared to the blank control group: tail vein once a week for 4 weeks, D28, IA1 10 mg/kg, DTX 5.7 mg/kg, MDC 10 mg/kg (equimolar); for breast tumor weight compared to the blank control group: FIG. 3A; for number of metastatic nodules on the lung surface compared to the blank control group: FIG. 3B
Experimental: • (1) Cell culture and tumor inoculation: 4T1 cells were cultured in 1640 medium (Gibco) containing 10% fetal bovine serum (Hyclone Corp, USA), 1% glutamine and 1% penicillin-streptomycin. The 4T1 cells in logarithmic growth phase were collected and the cell concentration was adjusted to 1.5×10^6/mL. 0.1 mL 4T1 cells (1.5×10^5/per mouse) were inoculated in the fourth mammary fat pad of female BALB/c mice.
Grouping and administration: BALB/c mice were inoculated with 4T1 breast cancer cells in the mammary fat pad. The day of inoculation was DO. Mice were administered in groups on the fourth day after inoculation. The experiment consisted of four groups: • (1) solvent control group (blank control group), • (2) IA1 10 mg/kg group, • (3) DTX (Docetaxel) 5.7 mg/kg group, • (4) MDC 10 mg/kg group. • (3) and (4) are positive control groups.
(§1) Each group had 10 animals. Mice were administered by tail vein injection once a week for 4 weeks. Animal weight and tumor volume were monitored during the administration. Animals were weighed every 2-3 days, and the long diameter and short diameter of breast tumors were measured with a vernier caliper. The tumor size was calculated by the formula: (½)×long diameter×(short diameter)^2. The experiment was terminated on the 28th day (D28). The mice were sacrificed by cervical dislocation after eyeball blood collection. The breast tumor and lung were weighed. The number of metastatic nodules on the lung surface was counted. The results of tumor weight are shown in FIG. 3A, and the results of the number of metastatic nodules on the lung surface are shown in FIG. 3B.

4T1 breast cancer [3] = test: 4T1 breast cancer lung metastasis model of mice, experiment (2); type: in vivo, BALB/c mice; conditions: for increase in breast tumor weight compared with the blank control group / increase in the number of metastatic nodules on the lung surface compared with the blank control group: tail vein once a week for 4 weeks, D28, DTX 5.7 mg/kg, DTX 5.7+MDA-1 4.53 mg/kg, DTX 5.7+MDA-1-linker 4.43 mg/kg; for increase in breast tumor weight compared with the blank control group: FIG. 4A
Experimental: 0.1 mL 4T1 cells (1.5×10^5/per mouse) were inoculated in the fourth mammary fat pad of female BALB/c mice.
Grouping and administration: BALB/c mice were inoculated with 4T1 breast cancer cells in the mammary fat pad. The day of inoculation was DO, and mice were administered in groups on the fourth day after inoculation. The experiment consisted of five groups: • (1) solvent control group (blank control group), • (2) IA1 10 mg/kg group, • (3) DTX (Docetaxel) 5.7 mg/kg group, • (4) DTX (5.7 mg/kg)+MDA-1 (4.53 mg/kg) group, • (5) DTX (5.7 mg/kg)+MDA-1-linker (4.43 mg/kg) group. • (3), (4) and (5) are positive control groups.
as §1, with “4A,” for “3A,”, “4B.” for “3B.”

4T1 breast cancer [4] = test: 4T1 breast cancer lung metastasis model of mice, experiment (3); type: in vivo, BALB/c mice; conditions: for increase in tumor weight compared with the blank control group / increase in tumor volume compared with the blank control group: tail vein once a week for 4 weeks, IA1 5 and 10 mg/kg, DTX 2.85 mg/kg, DTX 2.85+MDA-1 2.26 mg/kg, DTX 2.85+MDA-1-linker 2.21 mg/kg; for increase in tumor weight compared with the blank control group: D28, FIG. 5B; for increase in tumor volume compared with the blank control group: FIG. 5A
Experimental: […]. Grouping and administration: BALB/c mice were inoculated with 4T1 breast cancer cells in the mammary fat pad. The day of inoculation was DO, and mice were administered in groups on the fourth day after inoculation. The experiment consisted of six groups: • (1) solvent control group (blank control group), • (2) IA1 5 mg/kg group, • (3) IA1 10 mg/kg group, • (4) DTX (Docetaxel) 2.85 mg/kg group, • (5) DTX (2.85 mg/kg)+MDA-1 (2.26 mg/kg) group, • (6) DTX (2.85 mg/kg)+MDA-1-linker (2.21 mg/kg) group. • (4), (5) and (6) are positive control groups.
as §1, with “counted.” for “counted. The results of tumor weight are shown in FIG. 3A, and the results of the number of metastatic nodules on the lung surface are shown in FIG. 3B.”

Row | SMILES | Decrease in purity of main peak within 14 h (%) ([1]; Acetonitrile/pH 3.0 buffer) | Decrease in purity of main peak within 14 h (%) ([1]; Acetonitrile/pH 4.0 buffer) | Decrease in purity of main peak within 14 h (%) ([1]; Acetonitrile/pH 5.0 buffer) | Decrease in purity of main peak within 14 h (%) ([1]; Acetonitrile/pH 6.0 buffer) | Decrease in purity of main peak within 14 h (%) ([1]; Acetonitrile/pH 7.0 buffer) | Decrease in purity of main peak within 14 h (%) ([1]; Acetonitrile/pH 8.0 buffer) | inhibitory effects on tumor and cancer metastasis (4T1 breast cancer [2]; same experiment, compared with IA1) | breast tumor weight compared to the blank control group (4T1 breast cancer [2]) | number of metastatic nodules on the lung surface compared to the blank control group (4T1 breast cancer [2]) | increase of inhibitory effect on lung surface metastatic nodules compared with docetaxel+MDA-1 (4T1 breast cancer [3]; IA1 10 mg/kg versus DTX 5.7 mg/kg+MDA-1 4.53 mg/kg) | increase of inhibitory effect on lung surface metastatic nodules compared with docetaxel+MDA-1+linker (4T1 breast cancer [3]; IA1 10 mg/kg versus DTX 5.7 mg/kg+MDA-1-linker 4.43 mg/kg) | difference in the inhibitory effects on lung surface nodules versus positive control groups (4T1 breast cancer [3]; IA1 10 mg/kg, FIG. 4B) | increase in breast tumor weight compared with the blank control group (4T1 breast cancer [3]; IA1 10 mg/kg) | increase in the number of metastatic nodules on the lung surface compared with the blank control group (4T1 breast cancer [3]; IA1 10 mg/kg, FIG. 4B) | difference in the inhibitory effects on tumor volume and weight versus positive control groups (4T1 breast cancer [4]; IA1 versus docetaxel, docetaxel+MDA-1, docetaxel+MDA-1-linker, FIGS. 5A and 5B) | increase in tumor weight compared with the blank control group (4T1 breast cancer [4]) | increase in tumor volume compared with the blank control group (4T1 breast cancer [4])
1 | CC(=O)O[C@@]12CO[C@@H]1C[C@H](O)[C@@]1(C)C(=O)[C@H](O)C3=C(C)[C@@H](OC(=O)[C@H](OC(=O)CCC(=O)NCCCC[C@H](NC(=O)CC[C@@H](NC(=O)[C@H](C)NC(=O)/C=C/c4ccc(F)cc4Cl)C(N)=O)C(=O)O)[C@@H](NC(=O)OC(C)(C)C)c4ccccc4)C[C@@](O)([C@@H](OC(=O)c4ccccc4)[C@H]21)C3(C)C [IA1] | 0.11% | 0.19% | 0.19% | 0.51% | 7.38% | 22.55% | the most excellent | significantly inhibited | significantly inhibited | 27.9% | 18.6% | significant difference | significantly inhibited | significantly inhibited | significant difference | significantly inhibited | significantly inhibited
2 | CC(=O)O[C@@]12CO[C@@H]1C[C@H](O)[C@@]1(C)C(=O)[C@H](O)C3=C(C)[C@@H](OC(=O)[C@H](O)[C@@H](NC(=O)OC(C)(C)C)c4ccccc4)C[C@@](O)([C@@H](OC(=O)c4ccccc4)[C@H]21)C3(C)C [docetaxel] | – | – | – | – | – | – | – | significantly inhibited | significantly inhibited | – | – | – | significantly inhibited | significantly inhibited | – | significantly inhibited | significantly inhibited
